Data taken from ChEMBL document CHEMBL5724914, “Linking interpersonal differences in gut microbiota composition and drug biotransformation activity” (2024).

Tests used:
[1] = (§1) The drug is tested on Z-030 corresponding to mouse gut metagenome with ENA study accession number: PRJEB37062 and ENA sample accession number: ERS12561829 for biotransformation under anaerobic condition. The drug concentrations were measured over 9 timepoints collected between 0 and 24 hours of incubation by liquid-chromatography-coupled mass spectrometry (LC–MS); details: 2 µM
[2] = as §1, with “Z-021” for “Z-030”, “to” for “to mouse gut”, “ERS12561820” for “ERS12561829”; details: 2 µM
[3] = as §1, with “Z-019” for “Z-030”, “rat” for “mouse”, “ERS12561818” for “ERS12561829”; details: 2 µM
[4] = as §1, with “Z-012” for “Z-030”, “to” for “to mouse gut”, “ERS12561812” for “ERS12561829”; details: 2 µM
[5] = as §1, with “Z-007” for “Z-030”, “rat” for “mouse”, “ERS12561807” for “ERS12561829”; details: 2 µM
[6] = as §1, with “Z-004” for “Z-030”, “to” for “to mouse gut”, “ERS12561804” for “ERS12561829”; details: 2 µM
[7] = as §1, with “Z-001” for “Z-030”, “ERS12561801” for “ERS12561829”; details: 2 µM
[8] = as §1, with “WLS-370” for “Z-030”, “human” for “mouse”, “ERS12561793” for “ERS12561829”; details: 2 µM
[9] = as §1, with “WLS-240” for “Z-030”, “human” for “mouse”, “ERS12561773” for “ERS12561829”; details: 2 µM
[10] = as §1, with “WLS-220” for “Z-030”, “human” for “mouse”, “ERS12561769” for “ERS12561829”; details: 2 µM
[11] = as §1, with “WLS-090” for “Z-030”, “human” for “mouse”, “ERS12561753” for “ERS12561829”; details: 2 µM
[12] = as §1, with “WLS-069” for “Z-030”, “human” for “mouse”, “ERS12561748” for “ERS12561829”; details: 2 µM
[13] = as §1, with “WLS-038” for “Z-030”, “human” for “mouse”, “ERS12561745” for “ERS12561829”; details: 2 µM
[14] = human gut metagenome, 24 h, 2 µM
[15] = human gut metagenome, 24 h, 2 µM; remark: listed apart in the source
[16] = human gut metagenome, 24 h, 2 µM; remark: listed apart in the source
[17] = human gut metagenome, 24 h, 2 µM; remark: listed apart in the source
[18] = human gut metagenome, 24 h, 2 µM; remark: listed apart in the source
[19] = human gut metagenome, 24 h, 2 µM; remark: listed apart in the source
[20] = human gut metagenome, 24 h, 2 µM; remark: listed apart in the source
Also: call rule not given here.

Structure (SMILES) | Bacterial Biotransformation [1] | Bacterial Biotransformation [2] | Bacterial Biotransformation [3] | Bacterial Biotransformation [4] | Bacterial Biotransformation [5] | Bacterial Biotransformation [6] | Bacterial Biotransformation [7] | Bacterial Biotransformation [8] | Bacterial Biotransformation [9] | Bacterial Biotransformation [10] | Bacterial Biotransformation [11] | Bacterial Biotransformation [12] | Bacterial Biotransformation [13] | Bacterial Biotransformation [14] | Bacterial Biotransformation [15] | Bacterial Biotransformation [16] | Bacterial Biotransformation [17] | Bacterial Biotransformation [18] | Bacterial Biotransformation [19] | Bacterial Biotransformation [20]
COc1ccnc(C[S+]([O-])c2nc3ccc(OC(F)F)cc3[nH]2)c1OC (stereo not given) [PANTOPRAZOLE] | Compound metabolized | Compound metabolized | Compound metabolized | Compound metabolized | Compound NOT metabolized | Compound metabolized | Compound NOT metabolized | Compound metabolized | Compound metabolized | Compound metabolized | Compound metabolized | Compound metabolized | Compound metabolized | Compound metabolized | Compound metabolized | Compound metabolized | Compound metabolized | Compound metabolized | Compound metabolized | Compound metabolized
CN(CCOc1ccc(CC2SC(=O)NC2=O)cc1)c1ccccn1.O=C(O)/C=C\C(=O)O (stereo not given) [ROSIGLITAZONE MALEATE] | Compound NOT metabolized | Compound NOT metabolized | Compound NOT metabolized | Compound NOT metabolized | Compound NOT metabolized | Compound NOT metabolized | Compound NOT metabolized | Compound metabolized | Compound metabolized | Compound metabolized | Compound metabolized | Compound metabolized | Compound NOT metabolized | Compound metabolized | Compound NOT metabolized | Compound NOT metabolized | Compound NOT metabolized | Compound NOT metabolized | Compound metabolized | Compound metabolized
CC(C)c1nc(N(C)S(C)(=O)=O)nc(-c2ccc(F)cc2)c1/C=C/[C@@H](O)C[C@@H](O)CC(=O)[O-].CC(C)c1nc(N(C)S(C)(=O)=O)nc(-c2ccc(F)cc2)c1/C=C/[C@@H](O)C[C@@H](O)CC(=O)[O-].[Ca+2] [ROSUVASTATIN CALCIUM] | Compound NOT metabolized | Compound NOT metabolized | Compound NOT metabolized | Compound NOT metabolized | Compound NOT metabolized | Compound NOT metabolized | Compound NOT metabolized | Compound metabolized | Compound metabolized | Compound metabolized | Compound metabolized | Compound metabolized | Compound NOT metabolized | Compound metabolized | Compound metabolized | Compound metabolized | Compound NOT metabolized | Compound NOT metabolized | Compound metabolized | Compound metabolized
C=CC[C@@H]1/C=C(\C)C[C@H](C)C[C@H](OC)[C@H]2O[C@@](O)(C(=O)C(=O)N3CCCC[C@H]3C(=O)O[C@H](/C(C)=C/[C@@H]3CC[C@@H](O)[C@H](OC)C3)[C@H](C)[C@@H](O)CC1=O)[C@H](C)C[C@@H]2OC.O [TACROLIMUS] | Compound NOT metabolized | Compound NOT metabolized | Compound NOT metabolized | Compound NOT metabolized | Compound NOT metabolized | Compound NOT metabolized | Compound NOT metabolized | Compound metabolized | Compound metabolized | Compound metabolized | Compound metabolized | Compound metabolized | Compound metabolized | Compound metabolized | Compound metabolized | Compound metabolized | Compound metabolized | Compound metabolized | Compound metabolized | Compound metabolized
CCS(=O)(=O)CCn1c([N+](=O)[O-])cnc1C [TINIDAZOLE] | Compound metabolized | Compound metabolized | Compound metabolized | Compound metabolized | Compound metabolized | Compound metabolized | Compound metabolized | Compound metabolized | Compound metabolized | Compound metabolized | Compound metabolized | Compound metabolized | Compound metabolized | Compound metabolized | Compound metabolized | Compound metabolized | Compound metabolized | Compound metabolized | Compound metabolized | Compound metabolized
COc1ccc(CN2CCNCC2)c(OC)c1OC.Cl.Cl [TRIMETAZIDINE DIHYDROCHLORIDE] | Compound NOT metabolized | Compound NOT metabolized | Compound NOT metabolized | Compound NOT metabolized | Compound NOT metabolized | Compound NOT metabolized | Compound NOT metabolized | Compound NOT metabolized | Compound NOT metabolized | Compound NOT metabolized | Compound NOT metabolized | Compound NOT metabolized | Compound NOT metabolized | Compound NOT metabolized | Compound NOT metabolized | Compound NOT metabolized | Compound NOT metabolized | Compound NOT metabolized | Compound NOT metabolized | Compound NOT metabolized
CN1[C@@H]2CC[C@H]1C[C@@H](OC(=O)c1c[nH]c3ccccc13)C2 [TROPISETRON] | Compound NOT metabolized | Compound NOT metabolized | Compound NOT metabolized | Compound NOT metabolized | Compound NOT metabolized | Compound NOT metabolized | Compound NOT metabolized | Compound NOT metabolized | Compound NOT metabolized | Compound NOT metabolized | Compound metabolized | Compound NOT metabolized | Compound NOT metabolized | Compound NOT metabolized | Compound NOT metabolized | Compound NOT metabolized | Compound NOT metabolized | Compound NOT metabolized | Compound NOT metabolized | Compound metabolized
